# Data published in US20240099951A1, “HAIR GROWTH STIMULANT” (ADJUVANT HOLDINGS CO., LTD., priority 2020, published 2024).
# Tested on: skin samples derived from C57BL/6N mouse dorsal body hair skin grafted onto Balb/c nu/nu mice
# Assay: Evaluation of hair growth activity: drug applied on skin samples transplanted in mice
# Type: in vivo
# Description: C57BL/6N mice (male) and Balb/c nu/nu mice (female) were purchased from Japan SLC, Inc. (Japan) and bred, and were thereafter made available for the following testing. Note that the testing and breeding of animals complied with pertinent laws, regulations, ordinances, and guidelines, and was performed with the approval of the Experimental Ethics Review Board of the Institute of Physical and Chemical Research. The following reagents were respectively prepared. • Comparative Example 1: 60% aqueous ethanol solution • Comparative Example 2: 5% minoxidil solution • Comparative Example 3: 3% minoxidil solution • Comparative Example 4: 1% minoxidil solution • Working Example 1: 3% phytosphingosine solution • Working Example 2: 1% phytosphingosine solution To collect dorsal body hair skin in the form of anagen stage VI skin 12 to 14 days following depilation, C57BL/6N mice of age 7 to 8 weeks were depilated at locations where dorsal body hair skin was intended to be collected, and were bred for 12 to 14 days. The depilated C57BL/6N mice were thereafter euthanized by cervical dislocation, following which a suitable amount of dorsal body hair skin was collected from the locations at which dorsal body hair skin was intended to be collected. The collected skin was immersed in DMEM culture medium (hereinafter “DMEM 10”) which contained 10 mM HEPES, 10% fetal bovine serum, and 1% penicillin/streptomycin solution. The collected dorsal body hair skin was grasped with bent-nose curved tweezers and was treated by immersion for 10 seconds in a sterilizing solution. Sterilization treatment was performed by carrying out treatment with 7% povidone iodine solution two times, treatment with PBS (−) three times, and treatment with DMEM 10 two times, in this order, with fresh solutions respectively being used each time. Following sterilization treatment, these were immersed in clean DMEM 10. Following sterilization treatment, the dorsal body hair skin was cut into pieces and formed into blocks. The transparent connective tissue which adhered to the cutaneous muscle layer of the skin was excised therefrom using curved scissors, and hair groups were cut into rectangular strips in parallel fashion with respect to the direction of the wave of the hair. At this time, these were cut into blocks such that there were 6 rows of hair follicles along the long axis, adjustment having been carried out so that there were 5 rows of hair follicles along the short axis. The skin samples derived from dorsal body hair skin that were prepared in accordance with the foregoing were grafted onto Balb/c nu/nu mice of age 4 to 6 weeks. More specifically, mice were anesthetized in the usual way using isoflurane gas. The dorsal area of the mice was then disinfected using 7% povidone iodine solution, following which the mice were made to assume a naturally recumbent posture. In addition, a Mani ophthalmic knife (Mani, Inc.; Japan) was used to pierce the skin at the dorsal area of the mice, the grafts which were formed extending from the epidermal layer of the skin to the subdermal layer. The skin samples derived from dorsal body hair skin were inserted into the grafts formed thereat in such fashion as to cause the hair groups to be directed toward the body surface side of the grafts. Skin sample transplanted depth was adjusted so as to cause the top portion of the hair group to be in a state such that it was exposed at the top portion of the graft. To protect the grafts, Nurseban (registered trademark) (Sunplanet Co., Ltd.; Japan) and surgical tape (3M Japan Limited; Japan) were then used as protective tape to cover the grafts at which the skin samples derived from dorsal body hair skin had been transplanted. The protective tape was removed 5 to 7 days following transplantation, and survival of the transplanted skin samples derived from dorsal body hair skin was determined by visual inspection or digital microscopy (Keyence Corporation; Japan), after which follow-up observation was carried out. […]
# [1] = 1% phytosphingosine solution (Working Example 2), second hair cycle
# [2] = 1% phytosphingosine solution (Working Example 2), third hair cycle
# [3] = 1% phytosphingosine solution, second hair cycle vs first hair cycle
# [4] = 1% phytosphingosine solution, third hair cycle vs first hair cycle
# [5] = 3% phytosphingosine solution (Working Example 1), second hair cycle
# [6] = 3% phytosphingosine solution (Working Example 1), third hair cycle
# [7] = 3% phytosphingosine solution, second hair cycle vs first hair cycle
# [8] = 3% phytosphingosine solution, third hair cycle vs first hair cycle
# [9] = solution containing 1% phytosphingosine
# [10] = solution containing 3% phytosphingosine
smiles,measurement,setting,value
CCCCCCCCCCCCCC[C@@H](O)[C@@H](O)[C@@H](N)CO [phytosphingosine],Hair shaft elongation rate,[1],0.48 ± 0.03 mm/day
same,Maximum hair shaft length,[1],5.1 ± 0.2 mm
same,Hair shaft elongation rate,[2],0.45 ± 0.02 mm/day
same,Maximum hair shaft length,[2],4.7 ± 0.1 mm
same,"Hair shaft elongation rate, percent change relative to reference data",[3],129.73%
same,"Maximum hair shaft length, percent change relative to reference data",[3],113.33%
same,"Hair shaft elongation rate, percent change relative to reference data",[4],121.62%
same,"Maximum hair shaft length, percent change relative to reference data",[4],104.44%
same,Hair shaft elongation rate,[5],0.46 ± 0.03 mm/day
same,Maximum hair shaft length,[5],5.4 ± 0.1 mm
same,Hair shaft elongation rate,[6],0.43 ± 0.05 mm/day
same,Maximum hair shaft length,[6],5.1 ± 0.3 mm
same,"Hair shaft elongation rate, percent change relative to reference data",[7],109.52%
same,"Maximum hair shaft length, percent change relative to reference data",[7],122.73%
same,"Hair shaft elongation rate, percent change relative to reference data",[8],102.38%
same,"Maximum hair shaft length, percent change relative to reference data",[8],115.91%
same,hair growth activity,[9],exhibit hair growth activity
same,hair shaft elongation rate as compared with reference data,[9],significant improvement
same,maximum hair shaft length as compared with reference data,"solution containing 1% phytosphingosine, third hair cycle",no significant difference
same,hair growth activity,[10],exhibit hair growth activity
same,hair shaft elongation rate as compared with reference data,[10],no significant difference
same,maximum hair shaft length as compared with reference data,[10],significant improvement
